Legend:
[1] = room temperature; cited from earlier work
[2] = tested on: Desulfovibrio vulgaris (ATCC 29579); assay: Activity against sulfate reducing bacteria (3-tube MPN); assay type: cell-based; conditions: 10ppm; one hour of contact time; starting 2x10^7 mpn/ml; SRB2 media
Experimental: D. vulgaris was cultured for 2 days prior to experiment in SRB 2 media (Intertek). From this culture, 2 ml of inoculum was added to 18 ml anaerobic phosphate buffered saline (PBS).
Each concentration was tested in duplicate. […] The sealed bottles were incubated at room temperature (23°C) without agitation.
An initial sample was taken from the positive control to establish a starting concentration of bacteria for the experiment. 0.5 ml samples were taken at 1 hour time point and diluted in 4.5 ml anaerobic Dey/Engely (D/E) neutralizing broth to neutralize the Cu bacteriocide. A 1:10 dilution series was made using anaerobic PBS. Bacterial numbers were quantified by a 3-tube most probable number (MPN) method. Three tubes of anaerobic modified Baar's media (10 ml each) per dilution were inoculated with 1 ml each from their respective diluted sample. These tubes were incubated at 37°C for 72 hours. Positive samples were evaluated based on the presence of iron sulfide (FeS), which forms a black precipitate as a byproduct of hydrogen sulfide produced by bacterial growth reacting with iron included in the modified Baar's media.
All test media (PBS, D/E and modified Baar's media) were pretreated with 100 µl Oxyrase oxygen scavengers (obtained from Oxyrase Inc, Mansfield, OH) to render the test media anaerobic. […]

| Compound | Water solubility [1] [µg/mL] | log10 reduction [2] |
| --- | --- | --- |
| [Cu][Br] [CuBr, Copper bromide] | 11 | – |
| [Cl][Cu][Cl] [CuCl2, copper (II) chloride] | – | less than 3 log10 |
| O=CCCCC=O [gluteraldehyde] | – | greater than 4.23 log10 |
